In US10150760B2, “Compounds for use in preparing heterocyclic triazole agonists of the APJ receptor” (AMGEN INC., priority 2016, dated 2018):
pEC50: −log10 of the molar value.

Target: human APJ receptor (Homo sapiens (Human), UniProt P35414)
Assay: [35S]GTPγS binding assay on membranes from CHO cells stably expressing human APJ receptor
Type: biochemical
Settings: read-out: Activity hAPJ SPA EC50 IP
Method in brief: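 Agonist-driven [35S]GTPγS (0.2 nM) binding was measured over 90 min at room temperature on human APJ-expressing CHO membranes with bead capture, in buffer containing 3 μM GDP, 200 mM NaCl and 5 mM MgCl2 (pH 7.5). Excess unlabelled GTPγS (100 μM) gave nonspecific signal; EC50 from non-linear fits.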

Sequence of human APJ receptor (P35414 whole entry): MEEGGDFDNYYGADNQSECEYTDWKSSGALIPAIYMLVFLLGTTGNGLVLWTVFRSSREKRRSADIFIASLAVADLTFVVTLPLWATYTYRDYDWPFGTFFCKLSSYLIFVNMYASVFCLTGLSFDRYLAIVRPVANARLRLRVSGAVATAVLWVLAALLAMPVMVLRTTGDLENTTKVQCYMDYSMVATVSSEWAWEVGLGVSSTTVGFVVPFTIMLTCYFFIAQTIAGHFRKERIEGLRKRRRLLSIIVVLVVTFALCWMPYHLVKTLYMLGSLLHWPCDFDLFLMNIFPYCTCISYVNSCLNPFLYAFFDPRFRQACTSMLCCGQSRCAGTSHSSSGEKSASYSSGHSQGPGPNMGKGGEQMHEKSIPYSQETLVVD

Compound | pEC50
C[C@H](c1ncc(Cl)cn1)[C@H](C)S(=O)(=O)Nc1nnc([C@@H]2COCCO2)n1C1CCOCC1 (single isomer, unassigned) [Example 246.0, (2S,3R)-3-(5-chloro-2-pyrimidinyl)-N-(5-((2R)-1,4-dioxan-2-yl)-4-(tetrahydro-2H-pyran-4-yl)-4H-1,2,4-triazol-3-yl)-2-butanesulfonamide or (2S,3R)-3-(5-chloro-2-pyrimidinyl)-N-(5-((2S)-1,4-dioxan-2-yl)-4-(tetrahydro-2H-pyran-4-yl)-4H-1,2,4-triazol-3-yl)-2-butanesulfonamide] | < 5.38
CO[C@H](c1ncc(Cl)cn1)[C@H](C)S(=O)(=O)Nc1nnc([C@@H]2COCCO2)n1C1CCOCC1 (single isomer, unassigned) [Example 247.0, (1R,2S)-1-(5-chloro-2-pyrimidinyl)-N-(5-((2R)-1,4-dioxan-2-yl)-4-(tetrahydro-2H-pyran-4-yl)-4H-1,2,4-triazol-3-yl)-1-methoxy-2-propanesulfonamide or (1R,2S)-1-(5-chloro-2-pyrimidinyl)-N-(5-((2S)-1,4-dioxan-2-yl)-4-(tetrahydro-2H-pyran-4-yl)-4H-1,2,4-triazol-3-yl)-1-methoxy-2-propanesulfonamide] | 6.62
CO[C@H](c1ncc(Cl)cn1)[C@H](C)S(=O)(=O)Nc1nnc([C@@H]2COCCO2)n1C1CCOCC1 (single isomer, unassigned) [Example 248.0, (1R,2S)-1-(5-chloro-2-pyrimidinyl)-N-(5-((2R)-1,4-dioxan-2-yl)-4-(tetrahydro-2H-pyran-4-yl)-4H-1,2,4-triazol-3-yl)-1-methoxy-2-propanesulfonamide or (1R,2S)-1-(5-chloro-2-pyrimidinyl)-N-(5-((2S)-1,4-dioxan-2-yl)-4-(tetrahydro-2H-pyran-4-yl)-4H-1,2,4-triazol-3-yl)-1-methoxy-2-propanesulfonamide] | 9.24
COCC(COC)n1c(NS(=O)(=O)[C@@H](C)[C@H](OC)c2ncc(Cl)cn2)nnc1[C@@H]1COCCO1 (single isomer, unassigned) [Example 250.0, (1R,2S)-1-(5-chloro-2-pyrimidinyl)-N-(4-(1,3-dimethoxy-2-propanyl)-5-((2R)-1,4-dioxan-2-yl)-4H-1,2,4-triazol-3-yl)-1-methoxy-2-propanesulfonamide or (1R,2S)-1-(5-chloro-2-pyrimidinyl)-N-(4-(1,3-dimethoxy-2-propanyl)-5-((2S)-1,4-dioxan-2-yl)-4H-1,2,4-triazol-3-yl)-1-methoxy-2-propanesulfonamide] | 7.32
COCC(COC)n1c(NS(=O)(=O)[C@@H](C)[C@H](OC)c2ncc(Cl)cn2)nnc1[C@@H]1COCCO1 (single isomer, unassigned) [Example 251.0, (1R,2S)-1-(5-chloro-2-pyrimidinyl)-N-(4-(1,3-dimethoxy-2-propanyl)-5-((2R)-1,4-dioxan-2-yl)-4H-1,2,4-triazol-3-yl)-1-methoxy-2-propanesulfonamide or (1R,2S)-1-(5-chloro-2-pyrimidinyl)-N-(4-(1,3-dimethoxy-2-propanyl)-5-((2S)-1,4-dioxan-2-yl)-4H-1,2,4-triazol-3-yl)-1-methoxy-2-propanesulfonamide] | 6.12
COc1cccc(OC)c1-n1c(NS(=O)(=O)[C@H](C)[C@H](OC(C)C)c2cn3ccccc3n2)nnc1[C@H]1COCCO1 (single isomer, unassigned) [Example 266.0, (1R,2R)—N-(4-(2,6-dimethoxyphenyl)-5-((S)-1,4-dioxan-2-yl)-4H-1,2,4-triazol-3-yl)-1-(imidazo[1,2-a]pyridin-2-yl)-1-isopropoxypropane-2-sulfonamide or (1S,2S)—N-(4-(2,6-dimethoxyphenyl)-5-((S)-1,4-dioxan-2-yl)-4H-1,2,4-triazol-3-yl)-1-(imidazo[1,2-a]pyridin-2-yl)-1-isopropoxypropane-2-sulfonamide] | 6.82
COc1cccc(OC)c1-n1c(NS(=O)(=O)[C@@H](C)[C@H](C)c2ccc(Cl)cn2)nnc1[C@@H]1COCCO1 (single isomer, unassigned) [Example 267.0, (2S,3R)-3-(5-chloropyridin-2-yl)-N-(4-(2,6-dimethoxyphenyl)-5-((R)-1,4-dioxan-2-yl)-4H-1,2,4-triazol-3-yl)butane-2-sulfonamide or (2S,3R)-3-(5-chloropyridin-2-yl)-N-(4-(2,6-dimethoxyphenyl)-5-((S)-1,4-dioxan-2-yl)-4H-1,2,4-triazol-3-yl)butane-2-sulfonamide] | 8.68
COc1cccc(OC)c1-n1c(NS(=O)(=O)[C@@H](C)[C@H](C)c2ccc(Cl)cn2)nnc1[C@@H]1COCCO1 (single isomer, unassigned) [Example 268.0, (2S,3R)-3-(5-chloropyridin-2-yl)-N-(4-(2,6-dimethoxyphenyl)-5-((R)-1,4-dioxan-2-yl)-4H-1,2,4-triazol-3-yl)butane-2-sulfonamide or (2S,3R)-3-(5-chloropyridin-2-yl)-N-(4-(2,6-dimethoxyphenyl)-5-((S)-1,4-dioxan-2-yl)-4H-1,2,4-triazol-3-yl)butane-2-sulfonamide] | 8.72
COc1cccc(OC)c1-n1c(NS(=O)(=O)[C@@H](C)[C@H](C)c2ncc(C)cn2)nnc1[C@@H]1CCCN(C)C1 (single isomer, unassigned) [Example 269.0, (2S,3R)-N-(4-(2,6-dimethoxyphenyl)-5-((R)-1-methylpiperidin-3-yl)-4H-1,2,4-triazol-3-yl)-3-(5-methylpyrimidin-2-yl)butane-2-sulfonamide or (2S,3R)-N-(4-(2,6-dimethoxyphenyl)-5-((S)-1-methylpiperidin-3-yl)-4H-1,2,4-triazol-3-yl)-3-(5-methylpyrimidin-2-yl)butane-2-sulfonamide] | 6.38
COc1cccc(OC)c1-n1c(NS(=O)(=O)[C@@H](C)[C@H](C)c2ncc(C)cn2)nnc1[C@@H]1CCCN(C)C1 (single isomer, unassigned) [Example 270.0, (2S,3R)-N-(4-(2,6-dimethoxyphenyl)-5-((R)-1-methylpiperidin-3-yl)-4H-1,2,4-triazol-3-yl)-3-(5-methylpyrimidin-2-yl)butane-2-sulfonamide or (2S,3R)-N-(4-(2,6-dimethoxyphenyl)-5-((S)-1-methylpiperidin-3-yl)-4H-1,2,4-triazol-3-yl)-3-(5-methylpyrimidin-2-yl)butane-2-sulfonamide] | 6.39
CO[C@H](c1ncc(Cl)cn1)[C@H](C)S(=O)(=O)Nc1nnc([C@@H]2COCCO2)n1C1(C)CC1 (single isomer, unassigned) [Example 271.0, (1R,2S)-N-(5-((R)-1,4-dioxan-2-yl)-4-(1-methylcyclopropyl)-4H-1,2,4-triazol-3-yl)-1-(5-chloropyrimidin-2-yl)-1-methoxypropane-2-sulfonamide or (1R,2S)-N-(5-((S)-1,4-dioxan-2-yl)-4-(1-methylcyclopropyl)-4H-1,2,4-triazol-3-yl)-1-(5-chloropyrimidin-2-yl)-1-methoxypropane-2-sulfonamide] | 6.85
CO[C@H](c1ncc(Cl)cn1)[C@H](C)S(=O)(=O)Nc1nnc([C@@H]2COCCO2)n1C1(C)CC1 (single isomer, unassigned) [Example 272.0, (1R,2S)-N-(5-((R)-1,4-dioxan-2-yl)-4-(1-methylcyclopropyl)-4H-1,2,4-triazol-3-yl)-1-(5-chloropyrimidin-2-yl)-1-methoxypropane-2-sulfonamide or (1R,2S)-N-(5-((S)-1,4-dioxan-2-yl)-4-(1-methylcyclopropyl)-4H-1,2,4-triazol-3-yl)-1-(5-chloropyrimidin-2-yl)-1-methoxypropane-2-sulfonamide] | 6.00
COc1cccc(OC)c1-n1c(NS(=O)(=O)[C@@H](C)[C@H](C)c2ncc(F)cn2)nnc1[C@H]1CCOC1 (single isomer, unassigned) [Example 273.0, (2S,3R)-N-(4-(2,6-dimethoxyphenyl)-5-((R)-tetrahydrofuran-3-yl)-4H-1,2,4-triazol-3-yl)-3-(5-fluoropyrimidin-2-yl)butane-2-sulfonamide or (2S,3R)-N-(4-(2,6-dimethoxyphenyl)-5-((S)-tetrahydrofuran-3-yl)-4H-1,2,4-triazol-3-yl)-3-(5-fluoropyrimidin-2-yl)butane-2-sulfonamide] | 7.54
COc1cccc(OC)c1-n1c(NS(=O)(=O)[C@@H](C)[C@H](C)c2ncc(F)cn2)nnc1[C@H]1CCOC1 (single isomer, unassigned) [Example 274.0, (2S,3R)-N-(4-(2,6-dimethoxyphenyl)-5-((R)-tetrahydrofuran-3-yl)-4H-1,2,4-triazol-3-yl)-3-(5-fluoropyrimidin-2-yl)butane-2-sulfonamide or (2S,3R)-N-(4-(2,6-dimethoxyphenyl)-5-((S)-tetrahydrofuran-3-yl)-4H-1,2,4-triazol-3-yl)-3-(5-fluoropyrimidin-2-yl)butane-2-sulfonamide] | 7.11
COc1cccc(OC)c1-n1c(NS(=O)(=O)[C@@H](C)[C@H](C)c2ncc(F)cn2)nnc1[C@@H]1COCCO1 (single isomer, unassigned) [Example 276.0, (2S,3R)-N-(4-(2,6-dimethoxyphenyl)-5-((R)-1,4-dioxan-2-yl)-4H-1,2,4-triazol-3-yl)-3-(5-fluoropyrimidin-2-yl)butane-2-sulfonamide or (2S,3R)-N-(4-(2,6-dimethoxyphenyl)-5-((S)-1,4-dioxan-2-yl)-4H-1,2,4-triazol-3-yl)-3-(5-fluoropyrimidin-2-yl)butane-2-sulfonamide] | 7.48
COc1ncnc(OC)c1-n1c(NS(=O)(=O)[C@@H](C)[C@H](C)c2ncc(F)cn2)nnc1[C@@H]1COCCO1 (single isomer, unassigned) [Example 277.0, (2S,3R)-N-(4-(4,6-dimethoxypyrimidin-5-yl)-5-((R)-1,4-dioxan-2-yl)-4H-1,2,4-triazol-3-yl)-3-(5-fluoropyrimidin-2-yl)butane-2-sulfonamide or (2S,3R)-N-(4-(4,6-dimethoxypyrimidin-5-yl)-5-((S)-1,4-dioxan-2-yl)-4H-1,2,4-triazol-3-yl)-3-(5-fluoropyrimidin-2-yl)butane-2-sulfonamide] | 7.64
